The values below come from PubChem BioAssay AID977614 (Broad Institute, 2014).

The source made the active and inactive calls.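 Rule for the calls: active = parasite count per well reduced by over 3 SD from the mean, with host cell number above 80% of untreated; inactive = the rest.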 Where only a bound is given, the exact number is not on record here.

The test system of the experiment is L. donovani amastigotes in THP-1 macrophages, DAPI imaging, 72 h. Briefly: L. donovani intracellular amastigote growth inhibitors, imaging, THP-1 host macrophages, single concentration (AID 977614).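 Note: signal is the parasite per host cell ratio from DAPI stained kinetoplasts and nuclei.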
Broadly, the AC50 is the concentration giving half of the maximal activity seen. As to `C[C@@H]1CN([C@H](C)CO)C(=O)CCCn2nncc2CO[C@@H]1CN(C)Cc1ccc2cccnc2c1`, the AC50 was > 10 µM (inactive).
Then `C[C@@H]1CN([C@H](C)CO)C(=O)CCCn2nncc2CO[C@@H]1CN(C)Cc1ccc(C(=O)Nc2ccccc2N)cc1`, with > 10 µM (inactive); and `O=C(NC[C@H]1[C@H](c2ccccc2)[C@@H](CO)N1Cc1cccnc1)c1ccccn1`, with > 10 µM (inactive); and `C[C@@H]1CN([C@@H](C)CO)C(=O)CCCn2cc(nn2)CO[C@H]1CN(C)C(=O)c1ccc(N2CCN(C)CC2)cc1`, with > 10 µM (inactive).
In the case of `O=C(Nc1ccc(Cl)cc1)N1C[C@@H]2[C@H](c3ccccc31)[C@@H](CO)N2CC1CCCCC1` it was > 10 µM (inactive); in that of `COc1ccc(NC(=O)N(C)C[C@H]2OCc3cnnn3CCCC(=O)N([C@@H](C)CO)C[C@H]2C)c(OC)c1`, > 10 µM (inactive); in that of `CCNC[C@@H]1[C@@H](c2ccc(-c3ccc(F)cc3)cc2)[C@@H](CO)N1C(=O)C1CC1`, > 10 µM (inactive).
Then `CC(=O)N1[C@@H]2CN(S(=O)(=O)c3ccccc3C)c3ccccc3[C@@H]2[C@@H]1CO`, with > 10 µM (inactive); and `CCC(=O)NC[C@H]1[C@@H](c2ccc(-c3ccc(C#N)cc3)cc2)[C@@H](CO)N1CCC(F)(F)F`, with > 10 µM (inactive); and `C[C@@H]1CN([C@H](C)CO)C(=O)CCCn2nncc2CO[C@@H]1CN(C)C(=O)Nc1ccc2c(c1)OCCO2`, with > 10 µM (inactive).
With `CC(=O)N1[C@H](CN(CC2CCC2)C(=O)CN(C)C)[C@@H](c2ccccc2)[C@@H]1CO`, the AC50 was > 10 µM (inactive).
Then `CCN(C[C@@H]1[C@@H](c2ccccc2)[C@H](CO)N1C(=O)COC)S(C)(=O)=O`, with > 10 µM (inactive); and `C[C@H]1CN([C@@H](C)CO)C(=O)CCCn2nncc2CO[C@@H]1CN(C)Cc1ccc2cccnc2c1`, with > 10 µM (inactive).
Then `C[C@H]1CN([C@@H](C)CO)C(=O)CCCn2nncc2CO[C@H]1CN(C)S(=O)(=O)c1ccc2c(c1)OCCCO2`, with > 10 µM (inactive); and `COc1cccc(NC(=O)N2[C@@H](CO)[C@@H](c3ccccc3)[C@@H]2CNCC(C)C)c1`, with > 10 µM (inactive).
In the case of `Cc1noc(C)c1S(=O)(=O)N(C)C[C@H]1OCc2cn(nn2)CCCC(=O)N([C@@H](C)CO)C[C@@H]1C` it was > 10 µM (inactive).
As for `Cc1noc(C)c1NC(=O)N(C)C[C@H]1OCc2cnnn2CCCC(=O)N([C@@H](C)CO)C[C@H]1C`, the AC50 was > 10 µM (inactive).
Then `C[C@H](CO)N1C[C@H](C)[C@@H](CN(C)Cc2ccc3cccnc3c2)OCc2cnnn2CCCC1=O`, with > 10 µM (inactive); and `C[C@@H]1CN([C@@H](C)CO)C(=O)CCCn2cc(nn2)CO[C@@H]1CN(C)C(=O)Nc1cccc(C(F)(F)F)c1`, with > 10 µM (inactive); and `O=C(NC[C@H]1[C@@H](c2ccccc2)[C@H](CO)N1C(=O)Cc1ccncc1)C1CCC1`, with > 10 µM (inactive).
In the case of `CN(C[C@@H]1N[C@H](CO)[C@H]1c1ccccc1)C(=O)c1ccccn1` it was > 10 µM (inactive).
Then `O=C(NC[C@H]1[C@H](c2ccccc2)[C@@H](CO)N1C(=O)C1CCC1)NC1CCCC1`, with > 10 µM (inactive); and `COc1ccccc1C(=O)N1C[C@@H]2[C@H](c3ccccc31)[C@@H](CO)N2C(=O)Cc1ccccc1`, with > 10 µM (inactive); and `CCN(C[C@@H]1[C@@H](c2ccccc2)[C@H](CO)N1CC1CC1)C(=O)c1ccccn1`, with > 10 µM (inactive).
As to `CCN(C[C@H]1N[C@H](CO)[C@@H]1c1ccccc1)C(=O)c1ccncc1`, the AC50 was > 10 µM (inactive).
As to `CCCNC(=O)N1C[C@@H]2[C@H](c3ccccc31)[C@@H](CO)N2C(=O)Nc1ccccc1F`, the AC50 was > 10 µM (inactive).
In the case of `C/C=C/c1ccc([C@@H]2[C@H](CO)N(C(C)=O)[C@H]2CN(C(C)=O)C2CCCC2)cc1` it was > 10 µM (inactive).
As for `CC(=O)N1[C@H](CNC(=O)CN(C)C)[C@H](c2ccc(C3=CCCCC3)cc2)[C@@H]1CO`, the AC50 is > 10 µM (inactive).
Consider `CCCN1[C@H](CO)[C@H](c2ccc(C3=CCCC3)cc2)[C@H]1CNC(=O)NC(C)C`, for which the AC50 was > 10 µM (inactive).
As for `O=C(C1CC1)N1C[C@@H]2[C@H](c3ccccc31)[C@@H](CO)N2C(=O)c1ccccc1`, the AC50 is > 10 µM (inactive).
With `C[C@H](CO)N1C[C@H](C)[C@@H](CN(C)Cc2cccc(C(F)(F)F)c2)OCc2cnnn2CCCC1=O`, the AC50 is > 10 µM (inactive).
In the case of `CCC(=O)N1[C@H](CO)[C@H](c2ccccc2)[C@H]1CN(CC1CCC1)S(C)(=O)=O` it was > 10 µM (inactive).
Then `OC[C@@H]1[C@H]2c3ccccc3NC[C@H]2N1CC1CCOCC1`, with > 10 µM (inactive); and `CCCN1[C@H](CO)[C@H](c2ccc(C#CC(C)C)cc2)[C@@H]1CN(C)S(C)(=O)=O`, with > 10 µM (inactive); and `O=C(Nc1ccc(F)cc1)N1C[C@@H]2[C@H](c3ccccc31)[C@H](CO)N2Cc1ccccc1Cl`, with > 10 µM (inactive).
Then `C[C@@H]1CN([C@@H](C)CO)C(=O)CCCn2nncc2CO[C@@H]1CN(C)C(=O)Nc1ccc(-c2cccs2)cc1`, with > 10 µM (inactive); and `C[C@@H]1CN([C@@H](C)CO)C(=O)CCCn2nncc2CO[C@H]1CN(C)C(=O)Nc1ccnc(N2CCOCC2)c1`, with > 10 µM (inactive); and `C[C@H](CO)N1C[C@H](C)[C@H](CN(C)C(=O)Nc2ccnc(N3CCOCC3)c2)OCc2cnnn2CCCC1=O`, with > 10 µM (inactive).
Take `C[C@@H]1CN([C@H](C)CO)C(=O)CCCn2nncc2CO[C@@H]1CN(C)C(=O)c1ccc2ccn(C)c2c1`: the AC50 was > 10 µM (inactive).
In the case of `CNC[C@@H]1OCc2cnnn2CCCC(=O)N([C@@H](C)CO)C[C@@H]1C` it was > 10 µM (inactive).
Consider `O=C(NC[C@@H]1[C@H](c2ccccc2)[C@@H](CO)N1C(=O)Cc1ccncc1)C1CCC1`, for which the AC50 is > 10 µM (inactive).
In the case of `C/C=C/c1ccc([C@H]2[C@H](CO)N(C(C)=O)[C@H]2CN(CC)C(=O)CN(C)C)cc1` it was > 10 µM (inactive); in that of `CC(=O)N1[C@H](CO)[C@H](c2ccccc2)[C@H]1CN(CC1CCC1)C(=O)CN(C)C`, > 10 µM (inactive); in that of `C[C@@H]1CN([C@@H](C)CO)C(=O)CCCn2nncc2CO[C@@H]1CN(C)Cc1ccc2cccnc2c1`, > 10 µM (inactive).
As for `COCC(=O)N1C[C@@H]2[C@H](c3ccccc31)[C@H](CO)N2C(=O)c1ccccc1F`, the AC50 is > 10 µM (inactive).
Then `O=C(c1ccccn1)N1C[C@H]2[C@@H](c3ccccc31)[C@H](CO)N2C(=O)Nc1ccccc1Cl`, with > 10 µM (inactive); and `CCCNC(=O)N1[C@H](CO)[C@H](c2ccc(-c3ccc(C#N)cc3)cc2)[C@@H]1CNC`, with > 10 µM (inactive).
In the case of `C[C@H]1CN([C@@H](C)CO)C(=O)CCCn2nncc2CO[C@@H]1CN(C)C(=O)Nc1ccnc(N2CCOCC2)c1` it was > 10 µM (inactive); in that of `CNC[C@@H]1OCc2cn(nn2)CCCC(=O)N([C@@H](C)CO)C[C@@H]1C`, > 10 µM (inactive); in that of `CCNC[C@@H]1[C@H](c2ccccc2)[C@@H](CO)N1C(=O)Cc1ccccn1`, > 10 µM (inactive).
In the case of `O=C(c1ccccc1)N1C[C@H]2[C@@H](c3ccccc31)[C@@H](CO)N2Cc1ccccn1` it was > 10 µM (inactive); in that of `CN1C[C@@H]2[C@H](c3ccccc31)[C@H](CO)N2C(=O)c1cccnc1`, > 10 µM (inactive).
In the case of `O=C(NC[C@H]1N[C@H](CO)[C@H]1c1ccccc1)c1ccccc1F`, the AC50 was > 10 µM (inactive).
For the molecule `COc1ccc(C(=O)N2C[C@@H]3[C@H](c4ccccc42)[C@H](CO)N3C(=O)NC(C)C)cc1`, the AC50 was > 10 µM (inactive).
For the molecule `COc1ccccc1S(=O)(=O)N(C)C[C@H]1OCc2cn(nn2)CCCC(=O)N([C@H](C)CO)C[C@@H]1C`, the AC50 was > 10 µM (inactive).
Then `CC(=O)N1[C@H](CO)[C@H](c2ccccc2)[C@@H]1CN(C(=O)c1ccccc1F)C(C)C`, with > 10 µM (inactive); and `CC(C)NC[C@@H]1[C@H](c2ccc(C3=CCCCC3)cc2)[C@H](CO)N1S(C)(=O)=O`, with > 10 µM (inactive).
In the case of `C/C=C/c1ccc([C@H]2[C@@H](CO)N(CC3CCCC3)[C@H]2CNS(C)(=O)=O)cc1` it was > 10 µM (inactive); in that of `C[C@H]1CN([C@@H](C)CO)C(=O)CCCn2nncc2CO[C@H]1CN(C)C(=O)Nc1ccnc(N2CCOCC2)c1`, > 10 µM (inactive); in that of `CC(=O)N(Cc1cccc(F)c1)C[C@@H]1[C@@H](c2ccccc2)[C@@H](CO)N1C(C)=O`, > 10 µM (inactive).
Then `C[C@H](CO)N1C[C@H](C)[C@H](CN(C)C(=O)Oc2cccc3ccccc23)OCc2cnnn2CCCC1=O`, with > 10 µM (inactive); and `Cc1noc(C)c1NC(=O)N(C)C[C@H]1OCc2cnnn2CCCC(=O)N([C@H](C)CO)C[C@@H]1C`, with > 10 µM (inactive); and `C[C@H]1CN([C@@H](C)CO)C(=O)CCCn2nncc2CO[C@H]1CN(C)C(=O)c1ccc(N2CCN(C)CC2)cc1`, with > 10 µM (inactive).
As for `Cc1ccc(S(=O)(=O)N2C[C@H]3[C@@H](c4ccccc42)[C@@H](CO)N3Cc2cccnc2)cc1`, the AC50 is > 10 µM (inactive).
Then `C[C@@H]1CN([C@H](C)CO)C(=O)CCCn2cc(nn2)CO[C@@H]1CN(C)S(=O)(=O)c1cccc(C#N)c1`, with > 10 µM (inactive).
Then `CC(C)N(C[C@H]1[C@@H](c2ccccc2)[C@@H](CO)N1CC1CC1)C(=O)C1CCC1`, with > 10 µM (inactive); and `C[C@H](CO)N1C[C@H](C)[C@H](CN(C)Cc2ccc3cccnc3c2)OCc2cnnn2CCCC1=O`, with > 10 µM (inactive); and `COCCN(C[C@H]1N[C@H](CO)[C@@H]1c1ccccc1)C(=O)NC1CCCC1`, with > 10 µM (inactive).
In the case of `OC[C@H]1N[C@@H](CNCC2CCC2)[C@@H]1c1ccc(C2=CCCCC2)cc1` it was > 10 µM (inactive).
